Consider one compound from patent US20260000728A1, “PEPTIDE HAVING ACE INHIBITORY ACTIVITY AND COMPOSITION CONTAINING THE SAME” (Vedan International (Holdings) Limited, priority 2024, published 2026).

The subject of the assay is Spontaneously hypertensive rats (SHR). In words: Animal Test (2): 8-week feeding, weekly blood pressure in SHR. The assay is classed as in vivo, rat. The note with it: PC group, 1 mg/kg. The protocol: Six-week-old spontaneously hypertensive rats (SHR) were divided into 5 groups, each receiving the corresponding treatment stated below: • Negative control group (NC group): feeding with water • Positive control group (PC group): feeding with hypertension drug Captopril at 1 mg/kg • Low-dose group (L group): feeding with the peptide composition disclosed herein at a dose of 50 mg/kg • Medium-dose group (M group): feeding with the peptide composition disclosed herein at a dose of 100 mg/kg • High-dose group (H group): feeding with the peptide composition disclosed herein at a dose of 200 mg/kg
The experiment lasted for a total of 8 weeks.

As for `C[C@H](CS)C(=O)N1CCC[C@H]1C(=O)O` [Captopril], the Diastolic blood pressure was 80.2 ± 6.5 mmHg (Week 0); 79.9 ± 6.3 mmHg (Week 1); 79.0 ± 5.3 mmHg (Week 2); 78.9 ± 6.4 mmHg (Week 3); 78.9 ± 3.9 mmHg (Week 4); 78.8 ± 3.8 mmHg (Week 5). Besides, the Diastolic blood pressure (Week 6) worked out at 78.8 ± 3.2 mmHg, the Diastolic blood pressure (Week 7) is 78.8 ± 5.0 mmHg and the Diastolic blood pressure (Week 8) stood at 78.8 ± 2.9 mmHg. Besides, the Systolic blood pressure is listed as 111.0 ± 7.2 mmHg (Week 0); 110.2 ± 5.8 mmHg (Week 1); 108.8 ± 4.2 mmHg (Week 2); 108.6 ± 4.3 mmHg (Week 3); 108.4 ± 3.9 mmHg (Week 4); 108.1 ± 4.1 mmHg (Week 5). Also, the Systolic blood pressure is, setting by setting: (Week 6) 108.1 ± 2.0 mmHg; (Week 7) 108.0 ± 3.1 mmHg; (Week 8) 108.0 ± 2.5 mmHg.
